Test results reported in article PMC6068598 (ACS Omega, 2018).
One block for each compound: values may come before it.

Legend:
hTau-441 fibrils = hTau-441 fibrils (Homo sapiens, UniProt P10636); assay: Inhibition of [3H]astemizole binding to synthetic hTau-441 fibrils
[1] = imidazolyl sulfoxide moiety; cited from earlier work
[2] = First-in-man PET brain uptake in healthy volunteers; details: for peak uptake, whole brain: initial perfusion phase, 1 min p.i., i.v. bolus, healthy volunteers
monoamino oxidase A = details: cited from earlier work
monoamino oxidase B = details: no reference given; cited from earlier work

Chain of hTau-441 fibrils (P10636 1-441 isoform P10636-8): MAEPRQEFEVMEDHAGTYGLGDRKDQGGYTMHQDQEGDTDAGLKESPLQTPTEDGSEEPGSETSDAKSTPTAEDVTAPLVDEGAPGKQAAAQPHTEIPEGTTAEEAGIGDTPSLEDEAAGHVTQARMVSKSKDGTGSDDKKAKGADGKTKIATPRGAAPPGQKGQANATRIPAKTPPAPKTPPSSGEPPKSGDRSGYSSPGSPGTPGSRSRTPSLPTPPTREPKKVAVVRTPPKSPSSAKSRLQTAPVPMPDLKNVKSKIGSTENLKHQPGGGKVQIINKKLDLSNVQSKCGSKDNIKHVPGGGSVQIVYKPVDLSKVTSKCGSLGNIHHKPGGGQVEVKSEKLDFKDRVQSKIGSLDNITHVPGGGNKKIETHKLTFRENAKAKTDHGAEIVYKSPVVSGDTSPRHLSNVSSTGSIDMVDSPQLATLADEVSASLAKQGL

htau fibril binding result (hTau-441 fibrils): very high affinity
Compound: Cc1c(OCCF)ccnc1C[S+]([O-])c1nc2ccccc2n1C (centres unmarked) [11t, 2-(((4-(2-Fluoroethoxy)-3-methylpyridin-2-yl)methyl)sulfinyl)-1-methyl-1H-benzoimidazole]

radioactivity concentration in brain at 10 min ([2]; 10 min): about 3.0 % of the injected dose
radioactivity concentration in brain at 27 min ([2]; 27 min): ~2.0 % of the injected dose
radioactivity concentration in brain at 90 min ([2]; 90 min): ~1.3 % of the injected dose
peak uptake, whole brain [2]: 5.0–6.0 % i.D.
Compound: Cc1c(OCC(F)(F)[18F])ccnc1C[S+]([O-])c1nc2ccccc2n1C (centres unmarked) [[^18F]2]

Further lines, the compound ahead of its results:

Compound: Cc1c(OCC(F)(F)[18F])ccnc1C[S+]([O-])c1nc2ccccc2[nH]1 (centres unmarked) [[^18F]1, [^18F]lansoprazole]
pKa (N–H-acidity) [1]: ~4
whole brain activity at 2 min p.i. ([2]; 2 min p.i.): less than 1.0 % i.D.
whole brain activity after 90 min ([2]; after 90 min): below 0.5%
peak uptake, whole brain [2]: 2.5–3.5 % i.D.

Compound: [18F]c1ccc(-c2ccc3c(c2)[nH]c2ccncc23)cn1 [[^18F]T807]
affinity to monoamino oxidase A (monoamino oxidase A): high affinity

Compound: CNc1ccc(-c2ccc3cc(OC[C@H](O)C[18F])ccc3n2)cn1 [[^18F]THK-5351]
affinity for monoamino oxidase B (monoamino oxidase B): high affinity
